Data published in patent US11919858B2, “Aminonapthoquinone compounds and pharmaceutical composition for blocking ubiquitination-proteasome system in diseases” (Calgent Biotechnology Co., Ltd., priority 2015, dated 2024).
Read-outs that look alike come from different tables or passages of the source. Each block holds one compound with its values, some of them ahead of it.

Columns and labels:
[1] = system: HCT-116; test: Growth inhibition assay; format: cell-based; details: Homo sapiens, HCT-116; read-out: HCT-116 GI50 (μM) Mean ± S.E.
Experimental: (§1) Cells were seeded in 96-well plastic plates and exposed to MPT0L056 for 48 hours. Cell viability was assessed using the 3-(4,5-dimethylthiazol-2-yl)-2,5-diphenyltetrazolium bromide assay. Growth inhibition was expressed as the percentage of surviving cells in drug-treated versus DMSO-treated control cells.
(§2) The compounds of the invention were subjected to growth inhibition assay.

[2] = system: HL-60; test: Growth inhibition assay; format: cell-based; details: Homo sapiens, HL-60; read-out: HL-60 IC50 (μM) Mean ± S.E.
Experimental: as §1, §2

[3] = system: MDA-MB-231; test: Growth inhibition assay; format: cell-based; details: Homo sapiens, MDA-MB-231; read-out: MDA-MB-231 GI50 (μM) Mean ± S.E.
Experimental: as §1, §2

[4] = system: Hep 3B; test: Growth inhibition assay; format: cell-based; details: Homo sapiens, Hep3B; read-out: Hep3B GI50 (μM) Mean ± S.E.
Experimental: as §1, §2

[5] = system: human RPMI8226 multiple myeloma; test: Human RPMI8226 multiple myeloma xenograft in female nude mice (TMU-RPMI8226-e0001); format: in vivo; details: SAHA 100 mg/kg once every day
From the text: The 42-day study utilized five groups of mice (n=6) bearing established human PRMI8226 multiple myeloma with mean volumes of ˜85 mm^3 on D1. […] (FIG. 3).

[6] = system: HCT116 human colorectal adenocarcinoma
Experimental: MPT0L056 was used to evaluate for activity against the HCT116 human colorectal adenocarcinoma.
However, MPT0E028 was administered orally (p.o.) in 1.0% CMC and 0.5% Tween 80 and given dose at 25 mg/kg daily to end schedule.
Each animal was euthanized when the tumors reached the predetermined endpoint size of 1,000 mm^3. The time to endpoint (TTE) for each mouse was calculated by the following equation:
[formula] where TTE is expressed in days, endpoint volume is in mm^3, b is the intercept, and m is the slope of the line obtained by linear regression of a log-transformed tumor growth data set. The data set is comprised of the first observation that exceeded the study endpoint volume and the three consecutive observations that immediately preceded the attainment of the endpoint volume. The calculated TTE is usually less than the day on which an animal is euthanized for tumor size. […] An animal classified as having died from treatment-related (TR) causes or non-treatment-related metastasis (NTRm) causes was assigned a TTE value equal to the day of death. An animal classified as having died from non-treatment-related (NTR) causes was excluded from TTE calculations.
Treatment efficacy was determined from tumor growth delay (TGD), which is defined as the increase in the median TTE for a treatment group compared to the control group: TGD=T−C, expressed in days, or as a percentage of the median TTE of the control group:
[formula] where: • T=median TTE for a treatment group, • C=median TTE for control Group 1.
Treatment efficacy was also determined from the tumor volumes of animals remaining in the study on the last day, and from the number of regression responses. The MTV(n) is defined as the median tumor volume on D59 in the number of animals remaining, n, whose tumors have not attained the endpoint volume.
Treatment may cause a partial regression (PR) or a complete regression (CR) of the tumor in an animal. […] An animal with a CR at the termination of a study is additionally classified as a tumor-free survivor (TFS).
Animals were weighed daily for the first five days, then twice weekly until the completion of the study. The mice were examined frequently for overt signs of any adverse, drug-related side effects. Acceptable toxicity for the MTD of cancer drugs is defined as a group mean BW loss of 20% or less during the test, and not more than one TR death among ten animals. A death is classified as TR if there is evidence of treatment side effects from clinical signs and/or necropsy or from unknown causes during dosing period or within 10 days of the last dose. A death is classified as NTR if there is no evidence that the death was related to treatment side effects.
The logrank test was used to determine the statistical significance of the difference between the TTE values of two groups, except any NTR deaths. Statistical and graphical analyses were performed with Prism 3.03 (GraphPad) for Windows. The two-tailed statistical analyses were conducted at P=0.05. Kaplan-Meier plots show the percentage of animals remaining in the study versus time. The Kaplan-Meier plots use the same data set as the log rank test. The tumor growth curves show the group median tumor volume, on a log scale as a function of time.

[7] = system: human A2780 ovarian adenocarcinoma; test: Human A2780 ovarian cancer xenograft in female nude mice (TMU-A2780-e0001); format: in vivo
[8] = system: human MDA-MB-231 breast adenocarcinoma; test: Human MDA-MB-231 breast cancer xenograft in female nude mice (TMU-MDA-MB-231-e0002); details: bortezomib 1 mg/kg QWK to end
[9] = Group 3: bortezomib 1 mg/kg iv qwk to endpoint
[10] = Group 3: bortezomib 1 mg/kg iv qwk to endpoint, listed as Bortezomib
[11] = Group 6: bortezomib 1 mg/kg iv qwk + MPT0E028 25 mg/kg po qd to endpoint
[12] = Group 6: bortezomib 1 mg/kg iv qwk + MPT0E028 25 mg/kg po qd to endpoint, listed as Bortezomib

SMILES: O=C(Nc1ccc2[nH]ccc2c1)c1ccc(CNC2=C(Cl)C(=O)c3ccccc3C2=O)cc1 [MPT0L113, 4-((3-chloro-1,4-dioxo-1,4-dihydronaphthalen-2-ylamino)methyl)-N-(1H-indol-5-yl)benzamide]
GI50 [1]: 10 to 30 µM | IC50 [2]: 8.92 ± 0.39 µM | GI50 [3]: 10 to 30 µM | GI50 [4]: 10 to 30 µM

SMILES: O=C(CCCCCCC(=O)Nc1ccccc1)NO [SAHA, reference compound]
antitumor activity [5]: also showed antitumor activity | mice with complete regression [5]: one of six

SMILES: CC(C)C[C@H](NC(=O)[C@H](Cc1ccccc1)NC(=O)c1cnccn1)B(O)O [bortezomib, reference compound]
Median survival ([6]; Group 1 vs 3: bortezomib 1 mg/kg): 38.95 | Median survival ([6]; Group 1 vs 6: bortezomib + MPT0E028 1/25 mg/kg): 38.4 | % TGD [6, 9]: 71% | MTV (n) Day 59 [6, 9]: 683 mm^3 | Median TTE [6, 9]: 38.9 days | No. of CR [6, 9]: 2 | No. of LTTFS [6, 9]: 0 | No. of NTR [6, 9]: 0 | No. of PR [6, 9]: 1 | No. of TR [6, 9]: 0 | T-C [6, 9]: 16.2 days | antitumor activity (logrank analysis) [6, 9]: produced significant antitumor activity | Logrank Significance ([6]; Group 3: bortezomib 1 mg/kg iv qwk to endpoint, compared to Group 1): * (* = P < 0.05) | % TGD [6, 10]: 71% | No. of CR [6, 10]: two | No. of PR [6, 10]: one | % TGD [6, 11]: 69% | MTV (n) Day 59 [6, 11]: 0 mm^3 | Median TTE [6, 11]: 38.4 days | No. of CR [6, 11]: 1 | No. of LTTFS [6, 11]: 1 | No. of NTR [6, 11]: 4 | No. of PR [6, 11]: 1 | No. of TR [6, 11]: 0 | T-C [6, 11]: 15.7 days | % TGD [6, 12]: 69% | No. of CR [6, 12]: one | No. of LTTFS [6, 12]: one | No. of PR [6, 12]: one | antitumor activity ([7]; bortezomib 1 mg/kg QWK to end): showed antitumor activity | antitumor activity [8]: did not show antitumor activity

SMILES: N.N.[Cl][Pt][Cl] [cisplatin, reference compound]
antitumor activity ([7]; cisplatin 5 mg/kg QWK to end): showed antitumor activity

Now from value to compound, other results behind:

GI50 [1]: 10 to 30 µM | IC50 [2]: 10 to 30 µM | GI50 [3]: 10 to 30 µM
SMILES: Cc1cc2cc(NC(=O)c3ccc(CNC4=C(Cl)C(=O)c5ccccc5C4=O)cc3)ccc2[nH]1 [MPT0L114, 4-((3-chloro-1,4-dioxo-1,4-dihydronaphthalen-2-ylamino)methyl)-N-(2-methyl-1H-indol-5-yl)benzamide]
GI50 [4]: 10 to 30 µM

GI50 [1]: 10 to 30 µM | IC50 [2]: 4.06 ± 1.82 µM | GI50 [3]: 10 to 30 µM
SMILES: O=C(Nc1cccc2[nH]ccc12)c1ccc(CNC2=C(Cl)C(=O)c3ccccc3C2=O)cc1 [MPT0L116, 4-((3-chloro-1,4-dioxo-1,4-dihydronaphthalen-2-ylamino)methyl)-N-(1H-indol-4-yl)benzamide]
GI50 [4]: 10 to 30 µM

GI50 [1]: 10 to 30 µM | IC50 [2]: 7.39 ± 3.49 µM | GI50 [3]: 10 to 30 µM
SMILES: O=C(Nc1ccc2cn[nH]c2c1)c1ccc(CNC2=C(Cl)C(=O)c3ccccc3C2=O)cc1 [MPT0L118, 4-((3-chloro-1,4-dioxo-1,4-dihydronaphthalen-2-ylamino)methyl)-N-(1H-indazol-6-yl)benzamide]
GI50 [4]: 10 to 30 µM

GI50 [1]: 10 to 30 µM | IC50 [2]: 10 to 30 µM | GI50 [3]: 10 to 30 µM
SMILES: O=C(Nc1cnc2[nH]ccc2c1)c1ccc(CNC2=C(Cl)C(=O)c3ccccc3C2=O)cc1 [MPT0L119, 4-((3-chloro-1,4-dioxo-1,4-dihydronaphthalen-2-ylamino)methyl)-N-(1H-pyrrolo[2,3-b]pyridin-5-yl)benzamide]
GI50 [4]: 10 to 30 µM

GI50 [1]: 10 to 30 µM | IC50 [2]: 7.31 ± 1.94 µM | GI50 [3]: 10 to 30 µM
SMILES: O=C(Nc1cnc2[nH]ncc2c1)c1ccc(CNC2=C(Cl)C(=O)c3ccccc3C2=O)cc1 [MPT0L120, 4-((3-chloro-1,4-dioxo-1,4-dihydronaphthalen-2-ylamino)methyl)-N-(1H-pyrazolo[3,4-b]pyridin-5-yl)benzamide]
GI50 [4]: 10 to 30 µM

GI50 [1]: 10 to 30 µM | IC50 [2]: 2.68 ± 0.17 µM | GI50 [3]: 10 to 30 µM
SMILES: Cn1ccc2c(NC(=O)c3ccc(CNC4=C(Cl)C(=O)c5ccccc5C4=O)cc3)ncnc21 [MPT0L121, 4-((3-chloro-1,4-dioxo-1,4-dihydronaphthalen-2-ylamino)methyl)-N-(7-methyl-711-pyrrolo[2,3-d]pyrimidin-4-yl)benzamide]
GI50 [4]: 10 to 30 µM
